≈ marks a conversion by molar mass, not a printed value.
How the values were obtained:
Streptococcus pneumoniae = test: Antibacterial activity against PRSP; type: functional
Enterococcus faecium = test: Antibacterial activity against MDREFm; type: functional
MecA = target: T1, MecA (Staphylococcus aureus, UniProt Q7DHH4); test: Compound was tested for its binding affinity towards Penicillin-binding protein 2a (PBP2a) using […]-benzylpenicillin
T1 sequence (Q7DHH4 whole entry): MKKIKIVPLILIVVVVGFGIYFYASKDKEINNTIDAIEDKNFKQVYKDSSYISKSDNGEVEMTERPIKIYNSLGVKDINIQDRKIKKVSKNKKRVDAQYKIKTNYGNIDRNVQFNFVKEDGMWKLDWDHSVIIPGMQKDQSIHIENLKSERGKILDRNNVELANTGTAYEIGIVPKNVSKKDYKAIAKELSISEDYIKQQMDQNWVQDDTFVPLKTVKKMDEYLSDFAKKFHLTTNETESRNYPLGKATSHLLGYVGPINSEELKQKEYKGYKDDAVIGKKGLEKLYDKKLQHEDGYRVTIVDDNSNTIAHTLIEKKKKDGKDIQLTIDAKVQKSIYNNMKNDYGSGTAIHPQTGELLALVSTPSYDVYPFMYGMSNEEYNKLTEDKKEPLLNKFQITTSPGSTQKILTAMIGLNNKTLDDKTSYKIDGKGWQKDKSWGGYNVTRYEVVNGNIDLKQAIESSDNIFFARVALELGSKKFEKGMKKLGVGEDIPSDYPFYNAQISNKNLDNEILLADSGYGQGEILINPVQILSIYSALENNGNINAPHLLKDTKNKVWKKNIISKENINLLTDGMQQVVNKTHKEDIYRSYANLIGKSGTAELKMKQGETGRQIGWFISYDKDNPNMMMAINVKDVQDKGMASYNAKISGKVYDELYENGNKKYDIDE

Enterococcus faecalis = test: Antibacterial activity against VREFs; type: functional
Staphylococcus aureus [1] = test: Antibacterial activity against MRSA strain COL; type: functional
Staphylococcus aureus [2] = test: Antibacterial activity against MRSA; type: functional
Staphylococcus sp. = test: (§1) Antibacterial activity against MRCNS; type: functional
Staphylococcus aureus [3] = test: Antibacterial activity against for MRSA strain COL; type: functional
Staphylococcus = test: as §1; type: functional

SMILES	MIC (Streptococcus pneumoniae) [µg/mL]	MIC (Enterococcus faecium) [µg/mL]	IC50 (MecA) [µM]	MIC (Enterococcus faecalis) [µg/mL]	MIC (Staphylococcus aureus [1]) [µg/mL]	MIC (Staphylococcus aureus [2]) [µg/mL]	MIC (Staphylococcus sp.) [µg/mL]	MIC (Staphylococcus aureus [3]) [µg/mL]	MIC (Staphylococcus) [µg/mL]
C[C@@H](O)[C@H]1C(=O)N2C(C(=O)[O-])=C(CN3C(=O)c4cccc5cccc(c45)C3=O)[C@H](C)[C@H]12.[Na+]	1.4	64	3.16	24.3	32	12	24.3		
C[C@@H](O)[C@H]1C(=O)N2C(C(=O)[O-])=C(CN(c3cccc4ccccc34)S(C)(=O)=O)[C@H](C)[C@H]12.[Na+]								> 64	
C[C@@H](O)[C@H]1C(=O)N2C(C(=O)[O-])=C(CN3c4ccccc4CS3(=O)=O)[C@H](C)[C@H]12.[Na+]					16				
C[C@@H](O)[C@H]1C(=O)N2C(C(=O)[O-])=C(CN3C(=O)c4cccc5cccc3c45)[C@H](C)[C@H]12.[Na+]	4	64		64	32	12			21.1
C[C@@H](O)[C@H]1C(=O)N2C(C(=O)[O-])=C(CN3Cc4cccc5cccc(c45)S3(=O)=O)[C@H](C)[C@H]12.[Na+]	0.12	40.3	46.9	8	16	8.5	16		
C[C@@H](O)[C@H]1C(=O)N2C(C(=O)[O-])=C(CN3c4ccccc4-c4ccccc4S3(=O)=O)[C@H](C)[C@H]12.[Na+]					8				
C[C@@H](O)[C@H]1C(=O)N2C(C(=O)O)=C(SCCNC=N)C[C@H]12 [IMIPENEM ANHYDROUS]	0.25 (≈ 0.835 µM)	> 64	628	8 (≈ 26.7 µM)		> 40	> 64		
C[C@@H](O)[C@H]1C(=O)N2C(C(=O)[O-])=C(CN3C(=O)c4ccccc4S3(=O)=O)[C@H](C)[C@H]12.[Na+]					16				
CN[C@H](CC(C)C)C(=O)N[C@H]1C(=O)N[C@@H](CC(N)=O)C(=O)N[C@H]2C(=O)N[C@H]3C(=O)N[C@H](C(=O)N[C@H](C(=O)O)c4cc(O)cc(O)c4-c4cc3ccc4O)[C@H](O)c3ccc(c(Cl)c3)Oc3cc2cc(c3O[C@@H]2O[C@H](CO)[C@@H](O)[C@H](O)[C@H]2O[C@H]2C[C@](C)(N)[C@H](O)[C@H](C)O2)Oc2ccc(cc2Cl)[C@H]1O [VANCOMYCIN]	0.35 (≈ 0.242 µM)	20.2 (≈ 13.9 µM)		> 64		0.9 (≈ 0.621 µM)	1.7 (≈ 1.17 µM)		
C[C@@H](O)[C@H]1C(=O)N2C(C(=O)[O-])=C(CN(c3ccc4ccccc4c3)S(C)(=O)=O)[C@H](C)[C@H]12.[Na+]					> 64				
C[C@@H](O)[C@H]1C(=O)N2C(C(=O)[O-])=C(CN3C(=O)c4c(ccc5ccccc45)S3(=O)=O)[C@H](C)[C@H]12.[Na+]	0.25	20.2	3.34	8	4	1.3	5.3		
C[C@@H](O)[C@H]1C(=O)N2C(C(=O)[O-])=C(CN(c3ccccc3)S(=O)(=O)c3ccccc3)[C@H](C)[C@H]12.[Na+]					64				
C[C@@H](O)[C@H]1C(=O)N2C(C(=O)[O-])=C(CN3c4cccc5cccc(c45)S3(=O)=O)[C@H](C)[C@H]12.[Na+]					2				
C[C@@H](O)[C@H]1C(=O)N2C(C(=O)[O-])=C(CN(c3ccc4ccccc4c3)S(=O)(=O)c3ccccc3)[C@H](C)[C@H]12.[Na+]					64				
C[C@@H](O)[C@H]1C(=O)N2C(C(=O)[O-])=C(CN3C(=O)c4cccc5cccc(c45)S3(=O)=O)[C@H](C)[C@H]12.[Na+]	0.25	32	5.02	8	8	4	8		
C[C@@H](O)[C@H]1C(=O)N2C(C(=O)[O-])=C(CN3Cc4ccccc4S3(=O)=O)[C@H](C)[C@H]12.[Na+]					64				
C[C@@H](O)[C@H]1C(=O)N2C(C(=O)[O-])=C(CN3c4cccc5cccc(c45)N(C)S3(=O)=O)[C@H](C)[C@H]12.[Na+]	1	64	14.8	64	4	1.5	7		
C[C@@H](O)[C@H]1C(=O)N2C(C(=O)[O-])=C(CN3Cc4c(ccc5ccccc45)S3(=O)=O)[C@H](C)[C@H]12.[Na+]	0.17	50.8	38.1	8	8	3.4	10.6		
C[C@@H](O)[C@H]1C(=O)N2C(C(=O)[O-])=C(CN(c3ccccc3)S(=O)(=O)c3ccc4ccccc4c3)[C@H](C)[C@H]12.[Na+]					64				
C[C@@H](O)[C@H]1C(=O)N2C(C(=O)[O-])=C(CN(c3cccc4c3-c3ccccc3C4=O)S(C)(=O)=O)[C@H](C)[C@H]12.[Na+]					> 64				

Reference: ChEMBL document CHEMBL1132053, “Synthesis and activity of 2-(sulfonamido)methyl-carbapenems: discovery of a novel, anti-MRSA 1,8-naphthosultam pharmacophore” (Bioorg Med Chem Lett, 1999)
